Experimental findings from ChEMBL document CHEMBL1157902, “New diterpenoids from Caesalpinia species and their cytotoxic activity” (Bioorg Med Chem Lett, 2010) are described below.

The subject of test [1] is HL-60. As to the kind of experiment: Cytotoxicity against human HL60 cells by MTT assay. It counts as functional, cell-based. (Tetrazolium dyes change colour on reduction, which living cells bring about.)
Test [2] relates to HeLa. As to the kind of experiment: Cytotoxicity against human HeLa cells by MTT assay. It counts as functional, cell-based.

For orientation: IC50 means the point on the concentration scale where inhibition reaches its midpoint. Lower therefore signals greater potency in that assay. With `CC(=O)O[C@@H]1[C@H]2[C@@H](C)c3ccoc3C[C@@H]2[C@@]2(C)CCCC(C)(C)[C@]2(O)[C@@H]1OC(=O)/C=C/c1ccccc1`, in test [1], the Activity entry is “Dose-dependent effect” and the IC50 came out at 17.4 µM. In test [2], the Activity entry is “Dose-dependent effect” and the IC50 turned out to be 33.4 µM.
`COc1cc([C@@H]2c3cc4c(cc3[C@@H](O[C@@H]3O[C@@H]5CO[C@@H](C)O[C@H]5[C@H](O)[C@H]3O)[C@H]3COC(=O)[C@H]23)OCO4)cc(OC)c1O` [ETOPOSIDE] registered a 50% inhibitory concentration (IC50) in test [2] of 8.93 µM.
As to `CC[C@@]1(O)C(=O)OCc2c1cc1n(c2=O)Cc2cc3ccccc3nc2-1` [CAMPTOTHECIN], the values for the IC50 in test [1] and in test [2] were 0.59 µM and 0.94 µM, respectively.
On to `C[C@H]1C2=CC(=O)O[C@]2(O)C[C@H]2[C@H]1[C@@H](O)[C@@H](OC(=O)c1ccccc1)[C@@]1(O)C(C)(C)CCC[C@]21C`, for which the Activity entry in test [1] and in test [2] was “Dose-dependent effect” in each case. In addition, the IC50 in test [1] came to 44.9 µM; in test [2], 52.7 µM.
`C[C@H]1c2ccoc2C[C@H]2[C@H]1[C@@H](OC(=O)c1ccccc1)[C@@H](OC(=O)c1ccccc1)[C@@]1(O)C(C)(C)CCC[C@]21C`: in test [1], the Activity entry is “Dose-dependent effect” and half-maximal inhibition (IC50) required 19.8 µM. In test [2], the Activity result is “Dose-dependent effect” and the half-inhibitory concentration (IC50) was 33.9 µM.
